Laboratory results reported in article PMC9389804 (Journal of Hematology & Oncology, 2022).

Assay: safety assessments (adverse events, NCI CTCAE)
Details: AE resulting in dose interruption
Method: Adverse events were assessed continuously and graded according to NCI CTCAE v5.0.18. Complete blood count with differential, serum chemistries, and physical examinations were performed before the study; weekly during Cycles 1 and 2; on alternate weeks in Cycles 3 and 4; and monthly thereafter.

## Cc1ccc(C(=O)Nc2ccc(CN3CCN(C)CC3)c(C(F)(F)F)c2)cc1C#Cc1cnc2[nH]ncc2c1 [olverembatinib]
Accelerated phase n=38
  Acute myocardial infarction: 0 n (%)
  Anal abscess: 1 (2.6) n (%)
  Anemia: 5 (13.2) n (%)
  Atrial fibrillation: 1 (2.6) n (%)
  Atrial septal defect: 0 n (%)
  Chest pain: 0 n (%)
  Cholecystitis acute: 0 n (%)
  Cholelithiasis: 0 n (%)
  Febrile neutropenia: 0 n (%)
  Glaucoma: 0 n (%)
  Hematologic: 22 (57.9) n (%)
  Hemorrhoids: 0 n (%)
  Hepatocellular injury: 1 (2.6) n (%)
  Hyperbilirubinaemia: 0 n (%)
  Hyperglycaemia: 0 n (%)
  Hyperkalemia: 1 (2.6) n (%)
  Hypertriglyceridaemia: 1 (2.6) n (%)
  Hyperuricaemia: 0 n (%)
  Hypocalcemia: 0 n (%)
  Hypoesthesia: 0 n (%)
  Hypokalemia: 2 (5.3) n (%)
  Hyponatremia: 0 n (%)
  Increased alanine aminotransferase: 1 (2.6) n (%)
  Increased amylase: 0 n (%)
  Increased aspartate aminotransferase: 1 (2.6) n (%)
  Increased creatine phosphokinase: 1 (2.6) n (%)
  Increased pulmonary arterial pressure: 0 n (%)
  Increased γ-glutamyl transferase: 0 n (%)
  Influenza like illness: 0 n (%)
  Iridocyclitis: 1 (2.6) n (%)
  Lacunar infarction: 0 n (%)
  Leukopenia: 5 (13.2) n (%)
  Liver disorder: 0 n (%)
  Musculoskeletal pain: 1 (2.6) n (%)
  Myocardial strain: 0 n (%)
  Neutropenia: 4 (10.5) n (%)
  Nonhematologic: 14 (36.8) n (%)
  Pain: 0 n (%)
  Pain in extremity: 0 n (%)
  Peripheral swelling: 0 n (%)
  Pneumonia: 0 n (%)
  Proteinuria: 0 n (%)
  Pulmonary arterial hypertension: 0 n (%)
  Pulmonary tuberculosis: 1 (2.6) n (%)
  Pyrexia: 2 (5.3) n (%)
  Rash: 1 (2.6) n (%)
  Refraction disorder: 0 n (%)
  Sinus bradycardia: 0 n (%)
  Sinus tachycardia: 1 (2.6) n (%)
  Skin mass: 0 n (%)
  Superior mesenteric artery syndrome: 0 n (%)
  Supraventricular extrasystoles: 1 (2.6) n (%)
  Swelling: 0 n (%)
  Thrombocytopenia: 17 (44.7) n (%)
  Upper-respiratory-tract infection: 1 (2.6) n (%)
  Urinary sediment present: 0 n (%)
Chronic phase n=127
  Acute myocardial infarction: 1 (0.8) n (%)
  Anal abscess: 0 n (%)
  Anemia: 3 (2.4) n (%)
  Atrial fibrillation: 1 (0.8) n (%)
  Atrial septal defect: 1 (0.8) n (%)
  Chest pain: 1 (0.8) n (%)
  Cholecystitis acute: 1 (0.8) n (%)
  Cholelithiasis: 1 (0.8) n (%)
  Febrile neutropenia: 1 (0.8) n (%)
  Glaucoma: 1 (0.8) n (%)
  Hematologic: 44 (34.6) n (%)
  Hemorrhoids: 1 (0.8) n (%)
  Hepatocellular injury: 0 n (%)
  Hyperbilirubinaemia: 2 (1.6) n (%)
  Hyperglycaemia: 1 (0.8) n (%)
  Hyperkalemia: 0 n (%)
  Hypertriglyceridaemia: 3 (2.4) n (%)
  Hyperuricaemia: 1 (0.8) n (%)
  Hypocalcemia: 3 (2.4) n (%)
  Hypoesthesia: 1 (0.8) n (%)
  Hypokalemia: 0 n (%)
  Hyponatremia: 1 (0.8) n (%)
  Increased alanine aminotransferase: 3 (2.4) n (%)
  Increased amylase: 1 (0.8) n (%)
  Increased aspartate aminotransferase: 2 (1.6) n (%)
  Increased creatine phosphokinase: 3 (2.4) n (%)
  Increased pulmonary arterial pressure: 1 (0.8) n (%)
  Increased γ-glutamyl transferase: 1 (0.8) n (%)
  Influenza like illness: 1 (0.8) n (%)
  Iridocyclitis: 0 n (%)
  Lacunar infarction: 1 (0.8) n (%)
  Leukopenia: 4 (3.1) n (%)
  Liver disorder: 1 (0.8) n (%)
  Musculoskeletal pain: 0 n (%)
  Myocardial strain: 1 (0.8) n (%)
  Neutropenia: 1 (0.8) n (%)
  Nonhematologic: 34 (26.8) n (%)
  Pain: 1 (0.8) n (%)
  Pain in extremity: 1 (0.8) n (%)
  Pericardial effusion: 0 n (%)
  Peripheral swelling: 1 (0.8) n (%)
  Pneumonia: 2 (1.6) n (%)
  Proteinuria: 1 (0.8) n (%)
  Pulmonary arterial hypertension: 1 (0.8) n (%)
  Pulmonary tuberculosis: 0 n (%)
  Pyrexia: 1 (0.8) n (%)
  Rash: 0 n (%)
  Refraction disorder: 1 (0.8) n (%)
  Sinus bradycardia: 1 (0.8) n (%)
  Sinus tachycardia: 1 (0.8) n (%)
  Skin mass: 1 (0.8) n (%)
  Superior mesenteric artery syndrome: 1 (0.8) n (%)
  Supraventricular extrasystoles: 0 n (%)
  Swelling: 1 (0.8) n (%)
  Thrombocytopenia: 42 (33.1) n (%)
  Upper-respiratory-tract infection: 1 (0.8) n (%)
  Urinary sediment present: 1 (0.8) n (%)
Total n=165
  Acute myocardial infarction: 1 (0.6) n (%)
  Anal abscess: 1 (0.6) n (%)
  Anemia: 8 (4.8) n (%)
  Atrial fibrillation: 2 (1.2) n (%)
  Atrial septal defect: 1 (0.6) n (%)
  Chest pain: 1 (0.6) n (%)
  Cholecystitis acute: 1 (0.6) n (%)
  Cholelithiasis: 1 (0.6) n (%)
  Febrile neutropenia: 1 (0.6) n (%)
  Glaucoma: 1 (0.6) n (%)
  Hematologic: 66 (40.0) n (%)
  Hemorrhoids: 1 (0.6) n (%)
  Hepatocellular injury: 1 (0.6) n (%)
  Hyperbilirubinaemia: 2 (1.2) n (%)
  Hyperglycaemia: 1 (0.6) n (%)
  Hyperkalemia: 1 (0.6) n (%)
  Hypertriglyceridaemia: 4 (2.4) n (%)
  Hyperuricaemia: 1 (0.6) n (%)
  Hypocalcemia: 3 (1.8) n (%)
  Hypoesthesia: 1 (0.6) n (%)
  Hypokalemia: 2 (1.2) n (%)
  Hyponatremia: 1 (0.6) n (%)
  Increased alanine aminotransferase: 4 (2.4) n (%)
  Increased amylase: 1 (0.6) n (%)
  Increased aspartate aminotransferase: 3 (1.8) n (%)
  Increased creatine phosphokinase: 4 (2.4) n (%)
  Increased pulmonary arterial pressure: 1 (0.6) n (%)
  Increased γ-glutamyl transferase: 1 (0.6) n (%)
  Influenza like illness: 1 (0.6) n (%)
  Iridocyclitis: 1 (0.6) n (%)
  Lacunar infarction: 1 (0.6) n (%)
  Leukopenia: 9 (5.5) n (%)
  Liver disorder: 1 (0.6) n (%)
